Laboratory results from patent US7507727B2, “Substituted quinobenzoxazine analogs and methods of using thereof” (Cylene Pharmaceuticals, Inc., priority 2003, dated 2009).
Like-named read-outs stand apart in the source and are kept apart here.

Experiments:
[1] = test system: topoisomerase II; test: Topoisomerase-II poison assay; assay type: biochemical
Source text: FIG. 7 illustrates data from a toposiomerase-II poison assay, using VP-16 (Etoposide) as a control Topoisomerase-II poison.

[2] = Metabolic stability and metabolite profiling in hepatocytes; assay type: in vitro ADME, human
Method: Metabolic Stability Assay and Metabolite Profiling. A human hepatocyte assay to profile metabolites was carried out using commercially available kits and following standard procedures. The metabolic stability of CX-3543 with human hepatocytes was evaluated following incubation at 0, 30, 60, and 120 minutes at 1 and 20 μM. Consumption of the parent compound and the appearance of metabolites were carefully monitored, and mass spectrometer product ion scans were conducted on potential metabolite peaks to define the metabolite fragmentation pattern.
The protocol is designed to determine the stability of a new chemical entity in the presence of hepatocytes (human, rat, dog, monkey) in in vitro incubations. The test article will be incubated with hepatocytes and suitable media for various times at 37° C. The reaction mixtures will be extracted and analyzed by LC/MS/MS for the parent compound and anticipated metabolites. If applicable, a half-life will be calculated for the consumption of the test article. Metabolism controls will be run for comparison of the half-life values with that obtained for the test article. The metabolism controls are tolbutamide, desipramine and naloxone, and these compounds have defined pharmacokinetics corresponding to low, moderate and high in vivo clearance values, respectively.
Metabolic Stability Study. Generally, solutions of the test compounds are prepared along with a cocktail solution of metabolism controls that are intended to provide a reference for enzyme activity. The reactions are initiated by combining these pre-warmed solutions with hepatocyte suspensions and with a media control solution. Control zero samples are taken from these reactions immediately after initiation. Additional samples are taken at appropriate time points. Each sample is immediately placed in a terminating solution (acidified acetonitrile containing internal standard) to stop the reaction. Hepatocyte blank suspensions and test compound standard solutions are prepared.
Samples and standards for the test compound as well as appropriate blanks are subjected to a custom sample preparation procedure and analyzed for the parent and/or metabolite form of the test compound using high-performance liquid chromatography coupled with tandem mass spectrometry. Samples and standards for the metabolism controls are subjected to the analytical method described herein. Where Krebs Henseleit buffer is added, the buffer is bubbled with 5% CO2 in air at room temperature for 5-10 minutes before adding BSA to a final concentration of 0.2% w/v. The volume of terminating solution and the method of sample preparation will be determined for the test article during method development.
Test Article/Media Solution. A solution of the test article will be prepared by adding an appropriate volume of the stock solution to 0.2% BSA in Krebs Henseleit buffer equilibrated with 5% CO2 in air. The final concentration will be 20 μM and the final assay concentration at initiation of the reactions will be […].
Metabolism Controls/Media Solution. A solution of tolbutamide, desipramine and naloxone will be prepared by adding an appropriate volume of each 10 mM stock solution to 0.2% BSA in Krebs Henseleit buffer equilibrated with 5% CO2 in air. […]
Hepatocyte Suspension Solution. […] During the final step of the procedure, the viability of the cells will be determined using the method of trypan blue exclusion. […]

[3] = Pharmacokinetic/toxicokinetic evaluation in dogs; assay type: in vivo, beagle dogs; details: for Accumulation Ratio: Dose 5 to Dose 1 AUC(0-24), 1.2 mg/kg IV; for Tmax / AUC(0-t) / Cmax / half-life: iv, 1.2 mg/kg; for Tmax: median
Method: The study was conducted using three (3) test article and one (1) control article group. The control article was the solution (5% dextrose in water) used to dilute the test article prior to administration and was administered at the same volume as the high dose. The test article dosage levels for this study were approximately 12, 3.8, and 1.2 mg/kg. Test and control articles were administered once by intravenous (IV) infusion over approximately a one hour period on five consecutive days. Blood samples for test article blood level analysis was taken as follows (i.e., pk/tk sampling): approximately 1 mL of blood was taken from three male and three female dogs in the low dose group at approximately 20 minutes and 40 minutes from the start of the infusion, and then at the end of infusion (Time 0) and at 5, 10, 15, and 30 minutes, and 1, 2, 4, 8, 12, and 24 hours from the end of the infusion after the first and fifth doses. Also, prior to and immediately after Dose 1 and after Dose 5 for all animals, and for recovery animals prior to necropsy, approximately 5-10 second ECG tracings in a lead II configuration were obtained. Animals were terminated one (1) or 15 days after the last dose. Blood for hematology and clinical chemistry analysis was drawn pre-dose and prior to euthanasia at termination. Following euthanasia, a necropsy was performed to include collection of major organs for microscopic evaluation.
PK/TK: Blood samples for test article blood level analysis were taken. Approximately 1 mL of blood was taken from three males and three females in the low dose group at approximately 20 minutes and 40 minutes from the start of the infusion, and then at the end of infusion (Time 0) and at 5, 10, 15, and 30 minutes, and 1, 2, 4, 8, 12, and 24 hours from the end of the infusion after the first and fifth dose. Plasma (lithium heparin anticoagulant) samples were prepared and analyzed.

## CN1CCCC1CCNC(=O)c1cn2c3c(c(N4CCC(c5cnccn5)C4)c(F)cc3c1=O)Oc1cc3ccccc3cc1-2 (stereo not shown) [CX-3543]
[1]
  inhibitory activity against topoisomerase II: not to be an inhibitor or poison
[1]; supercoiled DNA, FIG. 7
  concentration up to which no topoisomerase dependent strand breaks were induced: > 100 µM
[2]; 0 vs 120 min
  metabolites in the hepatocyte incubation medium: no single major metabolite is present
[2]; 1 uM
  consumption by hepatocytes: very slowly
[2]; at or below 12 uM
  original drug remaining: about 60%
[2]; concentrations from about 12-20 uM
  consumption by hepatocytes: moderately to quickly
[2]; human, human hepatocytes (suspension), read-out: apparent Km of consumption by hepatocytes
  Km: > 20 µM
[3]; beagle, dog, plasma, female, 1.2 mg/kg IV infusion, Dose 1, read-out: Mean AUC(0-inf)
  AUC(0-inf): 386 ng·h/mL
[3]; beagle, dog, plasma, male, 1.2 mg/kg IV infusion, Dose 1, read-out: Mean AUC(0-inf)
  AUC(0-inf): 317 ng·h/mL
[3]; female
  Dose 5 to Dose 1 ratio for AUC(0-24): 1.1
  Accumulation Ratio: 1.1
[3]; female, Dose 1, 1.2 mg/kg IV, mean
  AUC(0-inf): 386.3 ng·h/mL
[3]; female, beagle, dog, plasma, Dose 1, 1.2 mg/kg IV
  Tmax: 0.67 h
[3]; female, beagle, dog, plasma, Dose 5, 1.2 mg/kg IV
  Tmax: 1 h
[3]; female, beagle, dog, plasma, female, 1.2 mg/kg IV infusion, Dose 1, read-out: Mean AUC(0-24)
  AUC(0-t): 381 ng·h/mL
[3]; female, beagle, dog, plasma, female, 1.2 mg/kg IV infusion, Dose 1, read-out: Mean Cmax
  Cmax: 139 ng/mL
[3]; female, beagle, dog, plasma, female, 1.2 mg/kg IV infusion, Dose 1, read-out: mean terminal half-life (converted)
  half-life: 3.8 h
[3]; female, beagle, dog, plasma, female, 1.2 mg/kg once daily, Dose 5, read-out: Mean AUC(0-24)
  AUC(0-t): 444 ng·h/mL
[3]; female, beagle, dog, plasma, female, 1.2 mg/kg once daily, Dose 5, read-out: mean Cmax
  Cmax: 145 ng/mL
[3]; female, beagle, dog, plasma, female, Dose 1, 1.2 mg/kg IV once daily, mean, read-out: Cmax
  Cmax: 139 ng/mL
[3]; female, beagle, dog, plasma, female, Dose 1, 1.2 mg/kg IV, harmonic mean, read-out: T1/2 (converted)
  half-life: 3.8 h
[3]; female, beagle, dog, plasma, female, Dose 1, 1.2 mg/kg IV, mean, read-out: AUC(0-24)
  AUC(0-t): 381 ng·h/mL
[3]; female, beagle, dog, plasma, female, Dose 5, 1.2 mg/kg IV once daily for 5 days, mean, read-out: Cmax
  Cmax: 145 ng/mL
[3]; female, beagle, dog, plasma, female, Dose 5, 1.2 mg/kg IV, harmonic mean, read-out: T1/2 (converted)
  half-life: 5.2 h
[3]; female, beagle, dog, plasma, female, Dose 5, 1.2 mg/kg IV, mean, read-out: AUC(0-24)
  AUC(0-t): 444 ng·h/mL
[3]; female, beagle, dog, plasma, female, Dose 5, read-out: mean terminal half-life (converted)
  half-life: 5.2 h
[3]; male
  Dose 5 to Dose 1 ratio for AUC(0-24): 1.2
  Accumulation Ratio: 1.2
[3]; male, Dose 1, 1.2 mg/kg IV, mean
  AUC(0-inf): 316.9 ng·h/mL
[3]; male, beagle, dog, plasma, Dose 1, 1.2 mg/kg IV
  Tmax: 0.67 h
[3]; male, beagle, dog, plasma, Dose 5, 1.2 mg/kg IV
  Tmax: 1 h
[3]; male, beagle, dog, plasma, male, 1.2 mg/kg IV infusion, Dose 1, read-out: Mean AUC(0-24)
  AUC(0-t): 314 ng·h/mL
[3]; male, beagle, dog, plasma, male, 1.2 mg/kg IV infusion, Dose 1, read-out: Mean Cmax
  Cmax: 108 ng/mL
[3]; male, beagle, dog, plasma, male, 1.2 mg/kg IV infusion, Dose 1, read-out: mean terminal half-life (converted)
  half-life: 3.2 h
[3]; male, beagle, dog, plasma, male, 1.2 mg/kg once daily, Dose 5, read-out: Mean AUC(0-24)
  AUC(0-t): 363 ng·h/mL
[3]; male, beagle, dog, plasma, male, 1.2 mg/kg once daily, Dose 5, read-out: mean Cmax
  Cmax: 126 ng/mL
[3]; male, beagle, dog, plasma, male, Dose 1, 1.2 mg/kg IV once daily, mean, read-out: Cmax
  Cmax: 108 ng/mL
[3]; male, beagle, dog, plasma, male, Dose 1, 1.2 mg/kg IV, harmonic mean, read-out: T1/2 (converted)
  half-life: 3.2 h
[3]; male, beagle, dog, plasma, male, Dose 1, 1.2 mg/kg IV, mean, read-out: AUC(0-24)
  AUC(0-t): 314 ng·h/mL
[3]; male, beagle, dog, plasma, male, Dose 5, 1.2 mg/kg IV once daily for 5 days, mean, read-out: Cmax
  Cmax: 126 ng/mL
[3]; male, beagle, dog, plasma, male, Dose 5, 1.2 mg/kg IV, harmonic mean, read-out: T1/2 (converted)
  half-life: 5.2 h
[3]; male, beagle, dog, plasma, male, Dose 5, 1.2 mg/kg IV, mean, read-out: AUC(0-24)
  AUC(0-t): 363 ng·h/mL
[3]; male, beagle, dog, plasma, male, Dose 5, read-out: mean terminal half-life (converted)
  half-life: 5.2 h
